IC50 and response vs control in vivo data for 11 compounds are collected here from patent publication US20150141411A1, “SUBSTITUTED 3,4-DIHYDRO-2H-PYRIDO[1,2-A]PYRAZINE-1,6-DIONE DERIVATIVES USEFUL FOR THE TREATMENT OF (INTER ALIA) ALZHEIMER'S DISEASE” (Janssen Pharmaceuticals, Inc., priority 2012, published 2015).

The structures appear in SMILES notation.

In experiment [1] the target is T1, γ-secretase (Homo sapiens, UniProt P49768).
T1 construct: endogenous in cells; host or cells: SKNBE2 human neuroblastoma cells (carrying hAPP 695 wild type as substrate)
Put plainly: Screening for γ-secretase-modulating activity: Aβ42 in supernatant of SKNBE2 cells carrying hAPP 695 wild type (Alphalisa). Format: cell-based. The note with it: SKNBE2 human neuroblastoma cells carrying hAPP 695 wild type, overnight incubation, Aβ42 in cell supernatant. Put shortly:
(§1)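 SKNBE2 neuroblastoma cells expressing wild-type hAPP 695 plated at 10^4 cells/well in Ultraculture with test compound, incubated overnight at 37° C. Aβ42 (C-terminal/N-terminal antibody pair) and Aβtotal (N-terminal/4G8 pair) in supernatant quantified by AlphaLISA. IC50 from 4-parameter fit of percent of compound-free control.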
Background: Bead proximity is the source of the signal in Alpha formats.

In experiment [2] the target is T1, γ-secretase. As to the kind of experiment: Screening for γ-secretase-modulating activity: Aβtotal in supernatant of SKNBE2 cells carrying hAPP 695 wild type (Alphalisa). Format: cell-based. The note with it: SKNBE2 human neuroblastoma cells carrying hAPP 695 wild type, overnight incubation, Aβtotal in cell supernatant. Put shortly: as §1
In a further experiment the test system is Aβ40. Put plainly: In vivo efficacy: brain soluble Aβ40 in non-transgenic rodents (MSD electrochemiluminescence multiplex). The arrangement: species or system mouse. The note with it: Mus musculus, po, 4 h, dose 30 mg/kg oral dosing, brain soluble fraction, animals sacrificed after 4 h, untreated animals (Ctrl) set at 100, read-out: Aβ40 (% vs Ctrl)_Mean. From the text: To determine whether acute administration of an Aβ42 lowering agent would reduce Aβ42 levels in vivo, non-transgenic rodents, e.g. mice or rats were used. Animals treated with the Aβ42 lowering agent were examined and compared to those untreated or treated with vehicle and brain levels of soluble Aβ42, Aβ40, Aβ38, and Aβ37 were quantitated by Meso Scale Discovery's (MSD) electrochemiluminescence detection technology. Treatment periods varied from hours (h) to days and were adjusted based on the results of the Aβ42 lowering once a time course of onset of effect could be established.
A typical protocol for measuring Aβ42 lowering in vivo is shown but it is only one of many variations that could be used to optimize the levels of detectable Aβ. For example, Aβ42 lowering compounds were formulated in 20% of Captisol® (a sulfo-butyl ether of β-cyclodextrin) in water or 20% hydroxypropyl βcyclodextrin. The Aβ42 lowering agents were administered as a single oral dose or by any acceptable route of administration to overnight fasted animals. After 4 h, the animals were sacrificed and Aβ42 levels were analysed.
Blood was collected by decapitation and exsanguinations in EDTA-treated collection tubes. Blood was centrifuged at 1900 g for 10 minutes (min) at 4° C. and the plasma recovered and flash frozen for later analysis. The brain was removed from the cranium and hindbrain. The cerebellum was removed and the left and right hemisphere were separated. The left hemisphere was stored at −18° C. for quantitative analysis of test compound levels. The right hemisphere was rinsed with phosphate-buffered saline (PBS) buffer and immediately frozen on dry ice and stored at −80° C. until homogenization for biochemical assays.
Mouse brains from non-transgenic animals were resuspended in 8 volumes of 0.4% DEA (diethylamine)/50 mM NaCl containing protease inhibitors (Roche-11873580001 or 04693159001) per gram of tissue, e.g. for 0.158 g brain, add 1.264 ml of 0.4% DEA. All samples were homogenized in the FastPrep-24 system (MP Biomedicals) using lysing matrix D (MPBio #6913-100) at 6 m/s for 20 seconds. Homogenates were centrifuged at 20800×g for 5 min and supernatants collected. Supernatants were centrifuged at 221.300×g for 50 min. The resulting high speed supernatants were then transferred to fresh eppendorf tubes. Nine parts of supernatant were neutralized with 1 part 0.5 M Tris-HCl pH 6.8 and used to quantify Aβ.
To quantify the amount of Aβ42, Aβ40, Aβ38, and Aβ37 in the soluble fraction of the brain homogenates, simultaneous specific detection of Aβ42, Aβ40, Aβ38, and Aβ37 was performed using MSD's electro-chemiluminescence multiplex detection technology. In this assay purified monoclonal antibodies specific for Abeta37 (JRD/Aβ37/3), Abeta38 (J&JPRD/Aβ38/5), Abeta40 (JRF/cAβ40/28), and Abeta42 (JRF/cAβ42/26) were coated on MSD 4-plex plates. Briefly, the standards (a dilution of synthetic Aβ42, Aβ40, Aβ38, and Aβ37) were prepared in 1.5 ml Eppendorf tube in Ultraculture, with final concentrations ranging from 10000 to 0.3 pg/m. The samples and standards were co-incubated with Sulfo-tag labelled JRF/rAβ/2 antibody to the N-terminus of Aβ as detector antibody. 50 μl of conjugate/sample or conjugate/standards mixtures were then added to the antibody-coated plate. The plate was allowed to incubate overnight at 4° C. in order to allow formation of the antibody-amyloid complex. Following this incubation and subsequent wash steps the assay was finished by adding read buffer according to the manufacturer's instructions (Meso Scale Discovery, Gaitherburg, Md.).
The SULFO-TAG emits light upon electrochemical stimulation initiated at the electrode. MSD Sector instrument SI6000 was used for signal read-out.
The results are shown in Table 5 (dose 30 mg/kg oral dosing) (value for untreated animals as control (Ctrl) was set at 100): […]

One may read the IC50 as the concentration at which inhibition is half-maximal. In the case of `Cc1cn(-c2ccc3n(c2=O)C[C@@H](C)N(Cc2cc(N4CCOC(C(F)(F)F)C4)cc(C(F)(F)F)c2)C3=O)cn1` (mixture of isomers) [compound 153], the IC50 at γ-secretase [1] was 60 nM; against γ-secretase [2], greater than 10000 nM. Moreover, in the experiment on Aβ40, the response vs control in vivo at 30 mg/kg came out at 128%.

Regarding `Cc1cn(-c2ccc3n(c2=O)C[C@@H](C)N(Cc2cc(N4CCCC4)ccc2Cl)C3=O)cn1` [compound 82], the figures for the IC50 against γ-secretase [1] and at γ-secretase [2] were 110 nM and greater than 10000 nM, respectively. Further, the response vs control in vivo at 30 mg/kg in the experiment on Aβ40 was determined as 125%.

Consider `CCOc1cc(C(C)N2C(=O)c3ccc(-n4cnc(C)c4)c(=O)n3C[C@H]2C)cc(C(F)(F)F)c1` (single isomer, unassigned) [compound 143], for which the IC50 against γ-secretase [1] was 60 nM; against γ-secretase [2] it was greater than 10000 nM. For the same compound, the response vs control in vivo at 30 mg/kg in the experiment on Aβ40 came to 129%.

With `Cc1cn(-c2ccc3n(c2=O)C[C@@H](C)N(Cc2cc(C4CC4)cc(C(F)(F)F)c2)C3=O)cn1` [compound 116], the IC50 on γ-secretase [1] was 80 nM; against γ-secretase [2], greater than 10000 nM. Further, in the experiment on Aβ40, the response vs control in vivo at 30 mg/kg was 105%.

On to `Cc1cn(-c2ccc3n(c2=O)CCN(C(C)c2c[nH]c4cc(F)c(Cl)cc24)C3=O)cn1` (single isomer, unassigned) [compound 183], for which the IC50 was found to be 30 nM against γ-secretase [1] and 6760 nM against γ-secretase [2]. Besides, the response vs control in vivo at 30 mg/kg in the experiment on Aβ40 was found to be 133%.

As to `Cc1cn(-c2ccc3n(c2=O)C[C@@H](C)N(Cc2ccc(F)c(F)c2)C3=O)cn1` [compound 133], the IC50 was 1510 nM at γ-secretase [1] and greater than 10000 nM against γ-secretase [2]. Besides, the response vs control in vivo at 30 mg/kg with Aβ40 amounted to 77%.

With `CCn1cc(C(C)N2C(=O)c3ccc(-n4cnc(C)c4)c(=O)n3CC2C)c2cc(Cl)c(F)cc21` (single isomer, unassigned) [compound 192], the IC50 against γ-secretase [1] turned out to be 10 nM; against γ-secretase [2], 1820 nM. Further, the response vs control in vivo at 30 mg/kg with Aβ40 was determined as 44%.

On to `Cc1cn(-c2ccc3n(c2=O)C[C@@H](C)N(Cc2cc(Br)cc(C(F)(F)F)c2)C3=O)cn1` [compound 145], for which the IC50 against γ-secretase [1] is 110 nM; against γ-secretase [2] it was greater than 10000 nM. For the same compound, the response vs control in vivo at 30 mg/kg in the experiment on Aβ40 turned out to be 92%.

For `Cc1cn(-c2ccc3n(c2=O)CC(C)N(Cc2cc(C(F)(F)F)cc(C(F)(F)F)c2)C3=O)cn1` (stereo not drawn) [compound 3], the IC50 against γ-secretase [1] was 100 nM; at γ-secretase [2], greater than 10000 nM. Also, in the experiment on Aβ40, the response vs control in vivo at 30 mg/kg was determined as 85%.

Take `Cc1cn(-c2ccc3n(c2=O)C[C@@H](C)N(CCc2cc(C(F)(F)F)cc(C(F)(F)F)c2)C3=O)cn1` [compound 50]: the IC50 is 40 nM at γ-secretase [1] and greater than 10000 nM against γ-secretase [2]. In the experiment with Aβ40, the response vs control in vivo at 30 mg/kg is 112%.

As for `Cc1cn(-c2ccc3n(c2=O)CC(C)N(C(C)c2cn(C(C)C)c4cc(F)c(Cl)cc24)C3=O)cn1` (single isomer, unassigned) [compound 194], the half-inhibitory concentration (IC50) at γ-secretase [1] turned out to be 10 nM; against γ-secretase [2] it was 1550 nM. Further, the response vs control in vivo at 30 mg/kg in the experiment with Aβ40 was determined as 43%.
